# Reference: patent US5441941A, “1,2-dihydroellipticines with activity against CNS specific cancer” (The United States of America as represented by the …, priority 1993, dated 1995)
# Experiments:
# NCI-H226 = assay: cells; conditions: Homo sapiens
# SR = assay: NCI in vitro screen, SRB percent growth, Leukemia
# RXF-393 = assay: NCI in vitro screen, SRB percent growth, Renal Cancer
# SN12C = assay: as above
# OVCAR-4 = assay: NCI in vitro screen, SRB percent growth, Ovarian Cancer
# NCI-H322M = assay: NCI in vitro screen, SRB percent growth, Non-Small Cell Lung Cancer
# HOP-92 = assay: cells; conditions: Homo sapiens
# A498 = assay: NCI in vitro screen, SRB percent growth, Renal Cancer
# DMS 273 = assay: NCI in vitro screen, SRB percent growth, Small Cell Lung Cancer
# HOP-18 = assay: NCI in vitro screen, SRB percent growth, Non-Small Cell Lung Cancer
# NCI-H522 = assay: as above
# [1] = NCI-H226, read-out: Percent Growth
# [2] = Log10 Concentration -4.0, 100 µM
# [3] = Log10 Concentration -7.0, 0.1 µM
# [4] = HOP-92, read-out: Percent Growth
compound,measurement,setting,value
Cc1ccc2[nH]c3c(C)c4c(c(C)c3c2c1)CN(C)C=C4 [Formula XI],GI50,NCI-H226; NCI-H226,0.329 µM
same,CC50,"NCI-H226; NCI-H226, read-out: LC-50",17.4 µM
same,activity at 0.01 µM,NCI-H226; [1],99%
same,activity at 0.1 µM,NCI-H226; [1],83%
same,activity at 1 µM,NCI-H226; [1],19%
same,activity at 10 µM,NCI-H226; [1],-43%
same,activity at 100 µM,NCI-H226; [1],-71%
same,IC (TGI),"NCI-H226; NCI-H226, read-out: TGI",2.02 µM
same,Percent Growth,SR; [2],-42%
same,Percent Growth,SR; Log10 Concentration -5.0,6%
same,Percent Growth,"SR; Log10 Concentration -6.0, 1 µM",47%
same,Percent Growth,SR; [3],86%
same,Percent Growth,SR; Log10 Concentration -8.0,101%
same,TGI,SR; PG=0,13.5 µM
same,GI50,SR; PG=+50,0.846 µM
same,CC50,"SR; read-out: LC-50, PG=-50",> 100 µM
same,Percent Growth,RXF-393; [2],-92%
same,Percent Growth,RXF-393; Log10 Concentration -5.0,9%
same,Percent Growth,"RXF-393; Log10 Concentration -6.0, 1 µM",51%
same,Percent Growth,RXF-393; [3],96%
same,Percent Growth,RXF-393; Log10 Concentration -8.0,99%
same,TGI,RXF-393; PG=0,12.3 µM
same,GI50,RXF-393; PG=+50,1.04 µM
same,CC50,"RXF-393; read-out: LC-50, PG=-50",38.5 µM
same,Percent Growth,SN12C; [2],-92%
same,Percent Growth,SN12C; Log10 Concentration -5.0,-69%
same,Percent Growth,"SN12C; Log10 Concentration -6.0, 1 µM",-36%
same,Percent Growth,SN12C; [3],66%
same,Percent Growth,SN12C; Log10 Concentration -8.0,92%
same,TGI,SN12C; PG=0,0.442 µM
same,GI50,SN12C; PG=+50,0.143 µM
same,CC50,"SN12C; read-out: LC-50, PG=-50",2.65 µM
same,Percent Growth,OVCAR-4; [2],-85%
same,Percent Growth,OVCAR-4; Log10 Concentration -5.0,-6%
same,Percent Growth,"OVCAR-4; Log10 Concentration -6.0, 1 µM",68%
same,Percent Growth,OVCAR-4; [3],96%
same,Percent Growth,OVCAR-4; Log10 Concentration -8.0,113%
same,TGI,OVCAR-4; PG=0,8.34 µM
same,GI50,OVCAR-4; PG=+50,1.74 µM
same,CC50,"OVCAR-4; read-out: LC-50, PG=-50",36.3 µM
same,Percent Growth,NCI-H322M; [2],-100%
same,Percent Growth,NCI-H322M; Log10 Concentration -5.0,10%
same,Percent Growth,"NCI-H322M; Log10 Concentration -6.0, 1 µM",99%
same,Percent Growth,NCI-H322M; [3],139%
same,Percent Growth,NCI-H322M; Log10 Concentration -8.0,133%
same,TGI,NCI-H322M; PG=0,12.3 µM
same,GI50,NCI-H322M; PG=+50,3.55 µM
same,CC50,"NCI-H322M; read-out: LC-50, PG=-50",35.1 µM
COc1ccc2[nH]c3c(C)c4c(c(C)c3c2c1)CN(C)C=C4 [Formula VII],GI50,HOP-92; HOP-92,5.97 µM
same,CC50,"HOP-92; HOP-92, read-out: LC-50",86.8 µM
same,activity at 0.01 µM,HOP-92; [4],121%
same,activity at 0.1 µM,HOP-92; [4],100%
same,activity at 1 µM,HOP-92; [4],95%
same,activity at 10 µM,HOP-92; [4],37%
same,activity at 100 µM,HOP-92; [4],-56%
same,IC (TGI),"HOP-92; HOP-92, read-out: TGI",25.1 µM
same,Percent Growth,A498; [2],-3%
same,Percent Growth,A498; Log10 Concentration -5.0,54%
same,Percent Growth,"A498; Log10 Concentration -6.0, 1 µM",93%
same,Percent Growth,A498; [3],114%
same,Percent Growth,A498; Log10 Concentration -8.0,105%
same,TGI,A498; PG=0,90.2 µM
same,GI50,A498; PG=+50,11.6 µM
same,CC50,"A498; read-out: LC-50, PG=-50",> 100 µM
same,TGI,DMS 273; PG=0,13.4 µM
same,GI50,DMS 273; PG=+50,0.827 µM
same,Percent Growth,HOP-18; [2],-6%
same,Percent Growth,HOP-18; Log10 Concentration -5.0,71%
same,Percent Growth,"HOP-18; Log10 Concentration -6.0, 1 µM",121%
same,Percent Growth,HOP-18; [3],142%
same,Percent Growth,HOP-18; Log10 Concentration -8.0,174%
same,TGI,HOP-18; PG=0,82.8 µM
same,GI50,HOP-18; PG=+50,18.8 µM
same,CC50,"HOP-18; read-out: LC-50, PG=-50",> 100 µM
same,Percent Growth,NCI-H522; [2],-46%
same,Percent Growth,NCI-H522; Log10 Concentration -5.0,-30%
same,Percent Growth,"NCI-H522; Log10 Concentration -6.0, 1 µM",40%
same,Percent Growth,NCI-H522; [3],91%
same,Percent Growth,NCI-H522; Log10 Concentration -8.0,97%
same,TGI,NCI-H522; PG=0,3.71 µM
same,GI50,NCI-H522; PG=+50,0.626 µM
same,CC50,"NCI-H522; read-out: LC-50, PG=-50",> 100 µM
